Assay results reported in patent publication US20090162351A1, “Transdiscal administration of inhibitors of p38 MAP kinase” (DePuy Spine, Inc., priority 2007, published 2009).

Assays:
JNK2 = JNK2 (Homo sapiens, UniProt P45984); assay: JNK2 inhibition; type: biochemical; conditions: read-out: inhibitor of JNK2, IC50
[1] = system: annulus fibrosus and nucleus pulposus cells from bovine caudal discs treated with IL-1β; assay: 3D in vitro disc cell model: GAG (DMMB); type: cell-based
Excerpt: Three-dimensional in vitro annulus fibrosis (AF) and nucleus pulposus (NP) models were established to investigate proteoglycan modulation and changes in gene expression in response to inflammatory cytokines such as interleukin-1 (e.g., IL-1β) and potential therapeutic agents such as growth and differentiation factor (GDF-5), and p38 MAP kinase inhibitors. AF and NP cells from bovine caudal discs were isolated by enzymatic digestion and seeded (2×10^6 cells/cm^2) onto Millipore CM filters coated with Collagen Type II and cultured in DMEM/20% heat-inactivated FBS, 100 ug/ml ascorbic acid and 5 ng/ml TGFβ1. […] Results were evaluated by histology (Tol. Blue staining was used to observe matrix production). Dimethylmethylene blue (DMMB) was used to detect sulphated glycosaminoglycans in a GAG/DNA assay. Taqman analysis was performed on aggrecans (AGG), collagen type 1 (col-1), collagen type 2 (col-2), and MMP 3, MMP 9 and MMP 13. In FIGS. 19A-C and 20A-C, annulus fibrosus and nucleus pulposus cells from bovine caudal discs were isolated by enzymatic digestion and seeded (2×10^6 cells/cm2) onto Millipore CM filters coated with Collagen Type II and cultured in DMEM/20% heat-inactivated FBS/100 ug/ml ascorbic acid and 5 ng/ml TGF-β1.

JNK = JNK inhibition; type: biochemical; conditions: read-out: inhibitor of JNK, IC50
[2] = system: LPS-induced IL-1 in hPBMC; assay: LPS-induced IL-1 in hPBMC; type: cell-based, human; conditions: read-out: inhibitor of LPS-induced IL-1 in hPBMC, IC50
Monkey PK = conditions: in vivo, female monkey

Chain of JNK2 (P45984 whole entry, species assumed): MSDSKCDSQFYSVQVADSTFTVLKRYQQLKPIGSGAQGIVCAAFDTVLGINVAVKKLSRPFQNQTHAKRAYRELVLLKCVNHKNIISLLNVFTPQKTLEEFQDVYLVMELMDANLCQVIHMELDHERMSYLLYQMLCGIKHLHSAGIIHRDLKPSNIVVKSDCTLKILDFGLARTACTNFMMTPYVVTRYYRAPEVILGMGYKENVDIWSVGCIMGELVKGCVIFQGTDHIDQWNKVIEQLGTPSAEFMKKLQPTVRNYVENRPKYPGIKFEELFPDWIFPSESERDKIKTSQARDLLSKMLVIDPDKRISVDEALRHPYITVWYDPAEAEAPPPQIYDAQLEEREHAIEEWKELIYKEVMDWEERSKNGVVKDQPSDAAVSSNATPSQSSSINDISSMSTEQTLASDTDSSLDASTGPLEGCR

SMILES: OCCC#Cc1nc(-c2ccc(F)cc2)c(-c2ccncc2)n1CCCc1ccccc1 [JNJ 3026582 (RWJ 67657), 4-[4-(4-fluorophenyl)-1-(3-phenylpropyl)-5-(4-pyridinyl)-1H-imidazol-2-yl]-3-butyn-1-ol]
- IC50 (JNK2): 80 nM
- amount of GAG in the tissue (in words) ([1]; 10 ng/ml IL-1β, inhibitor 1 μM, rhGDF-5 200 ng/ml): restored
- GAG release (in words) ([1]; Example V, IL-1β-treated disc cells): prevented GAG release in a dose dependent manner

SMILES: C[C@H](Nc1nccc(-c2c(-c3ccc(F)cc3)nc3nc(N)ccn23)n1)c1ccccc1 [JNJ 7583979 (RWJ 351958)]
- IC50 (JNK): 12 nM

SMILES: CC(=O)N1CCN(c2c(-c3ccncc3)c(-c3ccc(F)cc3)c(C#N)n2C)CC1 [JNJ 17089540 (RWJ 669307)]
- IC50 [2]: 250 nM

SMILES: C[C@@H]1CN(Cc2ccc(F)cc2)[C@@H](C)CN1C(=O)c1cc2c(C(=O)C(=O)N(C)C)cn(C)c2cc1Cl [SCIO-469 (SD 469)]
- bioavailability (Monkey PK; read-out: Monkey (F) PK, F %): 12%
- half-life (Monkey PK; read-out: Monkey (F) PK, t1/2 (converted)): 1.3 h
